Values of other authors as cited in patent US20160287599A1, “SUBSTITUTED 1,2,4-TRIAZINE-3,5-DIONES AND THE USE THEREOF AS CHYMASE INHIBITORS” (BAYER PHARMA AKTIENGESELLSCHAFT, priority 2013, published 2016).

Tested on: chymase
Settings: hamsters, myocardial infarction model

Question: Which results are given for CCOc1ccccc1CC1C(=O)N(C(=O)NC(c2ccc(C)cc2)c2ccc(C)cc2)C1Oc1ccc(C(=O)O)cc1 (stereo not drawn) [BCEAB]?
Answer: chymase activity: reduced; haemodynamics: improved; mortality: reduced
